Read-outs that look alike come from different tables or passages of the source.
Target: T1, hAhR (Homo sapiens, UniProt P35869)
T1 construct: Stably integrated DRE-luciferase cell lines were generated by transducing the both cell lines with Cignal XRE luciferase reporter (Qiagen) lentiviral particles; endogenous in cells; host or cells: HEPG2 (human hepatoma) with stably integrated XRE/DRE-luciferase reporter
T1 sequence (P35869 11-848): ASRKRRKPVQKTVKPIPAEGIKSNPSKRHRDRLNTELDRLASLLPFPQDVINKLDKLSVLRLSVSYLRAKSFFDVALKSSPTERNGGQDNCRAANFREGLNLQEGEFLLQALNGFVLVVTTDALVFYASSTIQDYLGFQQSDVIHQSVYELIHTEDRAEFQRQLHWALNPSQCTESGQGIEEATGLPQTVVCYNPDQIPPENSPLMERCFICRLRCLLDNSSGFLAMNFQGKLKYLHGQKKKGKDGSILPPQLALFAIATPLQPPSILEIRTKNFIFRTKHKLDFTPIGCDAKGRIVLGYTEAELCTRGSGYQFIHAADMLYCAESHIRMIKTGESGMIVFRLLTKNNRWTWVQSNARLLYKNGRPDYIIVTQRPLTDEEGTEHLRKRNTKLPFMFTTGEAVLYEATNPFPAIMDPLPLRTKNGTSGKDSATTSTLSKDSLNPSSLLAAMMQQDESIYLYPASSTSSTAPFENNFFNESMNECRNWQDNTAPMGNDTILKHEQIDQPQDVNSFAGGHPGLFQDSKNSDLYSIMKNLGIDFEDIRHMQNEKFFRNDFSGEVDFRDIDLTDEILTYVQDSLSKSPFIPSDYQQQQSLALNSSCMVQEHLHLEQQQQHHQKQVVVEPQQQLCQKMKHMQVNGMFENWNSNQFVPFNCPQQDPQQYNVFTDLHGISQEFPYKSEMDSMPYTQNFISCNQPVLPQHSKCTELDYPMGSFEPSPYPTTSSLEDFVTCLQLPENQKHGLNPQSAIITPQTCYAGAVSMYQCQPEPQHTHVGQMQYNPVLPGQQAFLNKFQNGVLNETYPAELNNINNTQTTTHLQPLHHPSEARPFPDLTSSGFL
Assay: DRE-luciferase transcriptional assay, antagonist mode, in HEPG2 DRE-Luc cells stimulated with TCDD
Type: cell-based
Settings: for Emax: read-out: HEPG2 % Max Inhibition
Experimental: HEPG2 and HEPA1C1C7 cells were maintained in MEM and αMEM without nucleosides supplemented with 10% heat inactivated FBS respectively. Stably integrated DRE-luciferase cell lines were generated by transducing the both cell lines with Cignal XRE luciferase reporter (Qiagen) lentiviral particles according to the manufacturer protocol. For both cell lines stably integrated reporter cell lines were selected for the presence of 2 μg/mL puromycin. Following selection of stably integrated cell line pools, clonal cell lines were isolated by limiting dilution in 96-well plates. Transcriptional assays were performed by seeding 100 μL of cells at a density of 250,000 or 100,000 cells/mL, for HEPG2 and HEPA1C1C7 DRE-Luc cells respectively, into 96-well cell culture plates in OptiMEM supplemented with 0.5% heat inactivated FBS and allowed to attach overnight. For antagonist assays, the compounds were added in a semi-log dose response using a D300e Digital Dispenser (Tecan) followed normalization with vehicle (DMSO). Immediately following compound addition […] of 2,3,7,8-Tetrachlorodibenzo-p-dioxin (TCDD) was added to the cells to a final concentration of 3 nM or 0.3 nM for the HEPG2 and HEPA1C1C7 DRE-Luc cells respectively. Following 24 h incubation the medium was removed and the cells were lysed in 25 μL of Reporter Lysis Buffer (Promega). Firefly luciferase activity was measured immediately following the addition of 50 μL Luciferase Assay Reagent (Promega). The percent maximal activity for each point was determined using the following equation: 100−(RLUsample−RLUvehicle−TCDD)/(RLUvehicle+TCDD RLUvehicle−TCDD)*100. The relative IC50, defined as the compound concentration required to reduce the TCDD induced response between the top and bottom plateau of each individual dose response curve by half, for each compound was determined using Prism 7 (GraphPad Software).

[1] = HEPG2 DRE-Luc cells, 3 nM TCDD, 24 h incubation
[2] = HEPG2 DRE-Luc cells, 3 nM TCDD, 24 h incubation, relative IC50, read-out: IC50 hAhR (antagonist mode)

SMILES | Emax [1] [%] | IC50 [2] [nM] | Emax (HepG2, 24 h) [%] | IC50 [nM]
Cc1cncc(-c2cn3c(C(C)C)nnc3c(NCCc3ccc(O)cc3)n2)c1 [Example 1] | 100 | 500 to 1000 |  | 
CC(C)c1nnc2c(NCCc3ccc(O)cc3)nc(-c3cncc(C#N)c3)cn12 [Example 2, 5-(8-{[2-(4-hydroxyphenyl)ethyl]amino}-3-isopropyl-4-hydro-1,2,4-triazolo[4,3-a]pyrazin-6-yl)pyridine-3-carbonitrile] | 100 | < 200 |  | 
Cc1cncc(-c2cn3c(C(C)C)nnc3c(NCCc3c[nH]c4ccccc34)n2)c1 [Example 3] | 100 | < 200 |  | 
CC(C)c1nnc2c(NCCc3c[nH]c4ccccc34)nc(-c3cncc(C#N)c3)cn12 [Example 4, 5-{8-[(2-indol-3-ylethyl)amino]-3-isopropyl-4-hydro-1,2,4-triazolo[4,3-a]pyrazin-6-yl}pyridine-3-carbonitrile] | 100 | < 200 |  | 
Cc1cncc(-c2cn3c(C(C)C)cnc3c(NCCc3ccc(O)cc3)n2)c1 [Example 5] | 65 | 500 to 1000 |  | 
CC(C)c1cnc2c(NCCc3ccc(O)cc3)nc(-c3cncc(C#N)c3)cn12 [Example 6, 5-(8-{[2-(4-hydroxyphenyl)ethyl]amino}-3-isopropyl-4-hydroimidazo[1,2-a]pyrazin-6-yl)pyridine-3-carbonitrile] | 100 | 200 to 500 |  | 
Cc1cncc(-c2cn3c(C(C)C)cnc3c(NCCc3c[nH]c4ccccc34)n2)c1 [Example 7, (2-indol-3-ylethyl)[6-(5-methyl(3-pyridyl))-3-isopropyl-(4-hydroimidazo[1,2-a]pyrazin-8-yl)]amine] | 100 | < 200 |  | 
CC(C)c1cnc2c(NCCc3c[nH]c4ccccc34)nc(-c3cncc(C#N)c3)cn12 [Example 8, 5-{8-[(2-indol-3-ylethyl)amino]-3-isopropyl-4-hydroimidazo[1,5-a]pyrazin-6-yl}pyridine-3-carbonitrile] | 100 | < 200 |  | 
Cc1cncc(-c2cn3c(C(C)C)ncc3c(NCCc3c[nH]c4ccccc34)n2)c1 [Example 9] | 100 | 200 to 500 |  | 
Cc1cncc(-c2cn3c(C(C)C)ncc3c(NCCc3ccc(O)cc3)n2)c1 [Example 10, 4-(2-{[6-(5-methyl(3-pyridyl))-3-isopropyl-4-hydroimidazo[1,5-a]pyrazin-8-yl]amino}ethyl)phenol] |  | 1000 to 10000 | 47 | 
Cc1nccn1-c1cn2c(C(C)C)cnc2c(NCCc2c[nH]c3c(F)cccc23)n1 [Example 11, [2-(7-fluoroindol-3-yl)ethyl][3-isopropyl-6-(2-methylimidazolyl)(4-hydroimidazo[1,2-a]pyrazin-8-yl)]amine] |  | < 200 | 100 | 
Cc1nccn1-c1cn2c(C(C)C)cnc2c(NCCc2c[nH]c3cc(F)ccc23)n1 [Example 12, [2-(6-fluoroindol-3-yl)ethyl][3-isopropyl-6-(2-methylimidazolyl)(4-hydroimidazo[1,2-a]pyrazin-8-yl)]amine] | 100 | < 200 |  | 
CC(CO)c1cnc2c(NCCc3c[nH]c4cccc(F)c34)nc(-c3cncc(F)c3)cn12 (centres unmarked) [Example 21, 2-(6-(5-fluoro-(3-pyridyl))-8-{[2-(4-fluoroindol-3-yl)ethyl]amino}-4-hydroimidazo[1,2-a]pyrazin-3-yl)propan-1-ol] |  | < 200 | 100 | 
CC(C)c1cnc2c(NCCc3c[nH]c4cccc(F)c34)nc(-c3cncc(F)c3)cn12 [Example 24] |  | < 200 | 100 | 
CC(C)c1cnc2c(NCCn3ccc4ccccc43)nc(-c3cncc(F)c3)cn12 [Example 29] |  |  | 100 | 500 to 1000

Second part, led by results:

Emax [1] [%] | IC50 [2] [nM] | SMILES | Emax (HepG2, 24 h) [%] | IC50 [nM]
99 |  | Cc1nccn1-c1cn2c(C(C)C)cnc2c(NCCc2c[nH]c3ccc(F)cc23)n1 [Example 13, [2-(5-fluoroindol-3-yl)ethyl][3-isopropyl-6-(2-methylimidazolyl)(4-hydroimidazo[1,2-a]-pyrazin-8-yl)]amine] |  | 
100 | < 200 | Cc1nccn1-c1cn2c(C(C)C)cnc2c(NCCc2c[nH]c3cccc(F)c23)n1 [Example 14, [2-(4-fluoroindol-3-yl)ethyl][3-isopropyl-6-(2-methylimidazolyl)(4-hydroimidazo[1,2-a]-pyrazin-8-yl)]amine] |  | 
73 | 1000 to 10000 | Cc1nccn1-c1cn2c(C(C)C)cnc2c(NCCc2c[nH]c3cccnc23)n1 [Example 15, [3-isopropyl-6-(2-methylimidazolyl)(4-hydroimidazo[1,2-a]pyrazin-8-yl)](2-pyrrolo[3,2-b]pyridin-3-ylethyl)amine] |  | 
83 | 1000 to 10000 | Cc1nccn1-c1cn2c(C(C)C)cnc2c(NCCc2c[nH]c3ncccc23)n1 [Example 16, [3-isopropyl-6-(2-methylimidazolyl)(4-hydroimidazo[1,2-a]pyrazin-8-yl)](2-pyrrolo[2,3-b]pyridin-3-ylethyl)amine] |  | 
100 | 500 to 1000 | Cc1nccn1-c1cn2c(C(C)C)cnc2c(N[C@H](C)Cc2c[nH]c3ccccc23)n1 [Example 17a] |  | 
81.3 | 1000 to 10000 | Cc1nccn1-c1cn2c(C(C)C)cnc2c(N[C@@H](C)Cc2c[nH]c3ccccc23)n1 [Example 17b, ((1S)-2-indol-3-yl-isopropyl)[3-isopropyl-6-(2-methylimidazolyl)(4-hydroimidazo[1,2-a]-pyrazin-8-yl)]amine] |  | 
77 | 1000 to 10000 | Cc1nccn1-c1cn2c(C(C)C)cnc2c(NCCc2cc[nH]c2)n1 [Example 18, [3-isopropyl-6-(2-methylimidazolyl)(4-hydroimidazo[1,2-a]pyrazin-8-yl)](2-pyrrol-3-ylethyl)amine] |  | 
100 | < 200 | CC(C)c1cnc2c(NCCn3c(=O)[nH]c4ccccc43)nc(-c3cncc(F)c3)cn12 [Example 19] |  | 
100 | < 200 | CC(C)c1cnc2c(NCCc3n[nH]c4ccccc34)nc(-c3cncc(F)c3)cn12 [Example 20] |  | 
100 | < 200 | Cc1nccn1-c1cn2c(C(C)C)cnc2c(NCCc2c[nH]c3cc(F)cc(F)c23)n1 [Example 22, [2-(4,6-difluoroindol-3-yl)ethyl][3-isopropyl-6-(2-methylimidazolyl)(4-hydroimidazo[1,2-a]pyrazin-8-yl)]amine] |  | 
12 | 1000 to 10000 | Cc1nccn1-c1cn2c(C(C)C)cnc2c(NCc2cccc(C(N)=O)c2)n1 [Example 23, 3-({[3-isopropyl-6-(2-methylimidazolyl)-4-hydroimidazo[1,2-a]pyrazin-8-yl]amino}-methyl)benzamide] |  | 
100 | < 200 | CC(C)c1cnc2c(NCCc3c[nH]c4cccc(F)c34)nc(-c3cnn(C)c3)cn12 [Example 25, [2-(4-fluoroindol-3-yl)ethyl][3-isopropyl-6-(1-methylpyrazol-4-yl)(4-hydroimidazo[1,2-a]-pyrazin-8-yl)]amine] |  | 
98 | 200 to 500 | Cc1ncc(-c2cn3c(C(C)C)cnc3c(NCCc3c[nH]c4cccc(F)c34)n2)cc1F [Example 26] |  | 
100 | 200 to 500 | Cc1ncc(-c2cn3c(C(C)C)cnc3c(NCCc3c[nH]c4cccc(F)c34)n2)cn1 [Example 27, [2-(4-fluoroindol-3-yl)ethyl][3-isopropyl-6-(2-methylpyrimidin-5-yl)(4-hydroimidazo[1,2-a]pyrazin-8-yl)]amine] |  | 
33 | 500 to 1000 | CC(C)c1cnc2c(NCc3cccc4[nH]ccc34)nc(-c3cncc(F)c3)cn12 [Example 28] |  | 
